IC50 and EC50 data for ten compounds are collected here from patent US10030016B2 (Sunesis Pharmaceuticals, Inc., priority 2009, dated 2018).

The structures appear in SMILES notation. Like-named read-outs stand apart in the source and are kept apart here. Some results are limits rather than exact numbers.

In one test the target is PDK1 (Homo sapiens (Human), UniProt O15530). Briefly: PDK1 kinase assay (coupled PDK1/AKT/FAM-crosstide assay, IMAP fluorescence polarization). The class given is biochemical. A digest of the protocol:
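PDK1 activity is measured indirectly through activation of a PIFtide-fused AKT2 construct that phosphorylates FAM-crosstide (100 nM). The reaction uses 0.75 nM PDK1, 40 μM ATP, 30 min, 25° C, with IMAP polarization detection.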
(Polarisation of emitted light reports the rotation of a fluorescent probe.)

The test system of test [1] is phospho-akt (Thr308) in PC-3 cells. As to the kind of experiment: Inhibition of phospho-akt (Thr308) in PC-3 cells, MSD phospho-akt 308 ELISA kit. The class given is cell-based. As to conditions: Homo sapiens, 2 hours, no serum, read-out: EC50. In short, it runs like this:
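Serum-free 2 h compound exposure of overnight-seeded PC-3 cells, threefold dilution series; lysates analysed on blocked MSD plates (3% BSA) for Thr308-phosphorylated Akt, normalised between DMSO and 5 μM wortmannin wells.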

Setting [2] is: inhibition of phospo-PDK1 in vitro.
The mark [3] stands for this setting: inhibition of P308 Akt in PC-3 cells, MSD.
[4] abbreviates: inhibition of P308 Akt in PC-3 cells using MSD.

PDK1, sequence (O15530 51-359): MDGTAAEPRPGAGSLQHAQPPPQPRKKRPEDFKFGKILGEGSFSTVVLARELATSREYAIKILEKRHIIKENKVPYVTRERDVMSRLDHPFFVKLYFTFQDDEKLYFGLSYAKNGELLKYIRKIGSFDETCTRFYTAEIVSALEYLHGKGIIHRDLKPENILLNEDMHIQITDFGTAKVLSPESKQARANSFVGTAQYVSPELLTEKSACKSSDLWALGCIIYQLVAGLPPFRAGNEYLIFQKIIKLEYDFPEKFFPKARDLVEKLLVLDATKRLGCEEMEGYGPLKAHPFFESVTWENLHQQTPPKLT

On to `Nc1ncnc2ccc(-c3ccc(CNc4ncc(S(=O)(=O)N5CCOCC5)cc4C(=O)NCc4ccc(F)c(F)c4)s3)cc12` [Example 8.7.12, 2-(((5-(4-aminoquinazolin-6-yl)thiophen-2-yl)methyl)amino)-N-(3,4-difluorobenzyl)-5-(morpholinosulfonyl) nicotinamide], for which, on PDK1 (setting [2]), the IC50 – broadly, the midpoint of a concentration-inhibition curve – was 100 to 1000 nM. Besides, the EC50 (commonly the concentration needed to bring the measured effect to its halfway point) in test [1] (setting [3]) was under 1000 nM.

As for `C[C@H](NC(=O)c1cccnc1NCc1ccc(-c2cc3c(N)ncnc3cn2)s1)c1ccc(F)c(F)c1` [Example 7.16, 2-({[5-(4-aminopyrido[3,4-d]pyrimidin-6-yl)thiophen-2-yl]methyl}amino)-N-[(1S)-1-(3,4-difluorophenyl)ethyl] pyridine-3-carboxamide], the IC50 on PDK1 (setting [2]) is 100 to 1000 nM. The EC50 in test [1] (setting [3]) was in the range of 1000 to 10000 nM.

The compound `Nc1ncnn2c(-c3ccc(CNc4ncc(C(F)(F)F)cc4C(=O)NCc4ccc(F)c(F)c4)cc3)ccc12` [Example 179, 2-[4-(4-Amino-pyrrolo [2,1-f][1,2,4]triazin-7-yl)-benzylamino]-N-(3,4-difluoro-benzyl)-5-trifluoromethyl-nicotinamide] gave an IC50 against PDK1 (inhibition of PDK1 in vitro) of 100 to 1000 nM. Also, in test [1] (setting [4]), the EC50 was 1000 to 10000 nM.

In the case of `C[C@H](NC(=O)c1cn(C)nc1NCc1ccc(-c2ccc3ncnc(N)c3c2)s1)c1ccc(F)cc1` [Example 11.5, 3-({[5-(4-aminoquinazolin-6-yl)thiophen-2-yl]methyl}amino)-N-[(1S)-1-(4-fluorophenyl)ethyl]-1-methyl-1H-pyrazole-4-carboxamide], at PDK1 (setting [2]), the IC50 was under 100 nM. Moreover, the EC50 in test [1] (setting [3]) was 1000 to 10000 nM.

`C[C@H](NC(=O)c1cccnc1N[C@@H](COc1ccc2c(c1)[nH]c(=O)n2C)c1ccccc1)c1ccc(F)c(F)c1` [Example 16.13, N—((S)-1-(3,4-difluorophenyl)ethyl)-2-((R)-2-(1-methyl-2-oxo-2,3-dihydro-1H-benzo[d]imidazol-5-yloxy)-1-phenylethylamino)nicotinamide] registered a 50% inhibitory concentration (IC50) on PDK1 (setting [2]) of under 100 nM. The EC50 in test [1] (setting [3]) was in the range of 1000 to 10000 nM.

`O=C(Nc1ccc(F)c(F)c1)c1cccnc1NCc1cccc(-c2c[nH]c3ncccc23)c1` [Example 1.14, N-(3,4-difluorophenyl)-2-{[3-(1H-pyrrolo[2,3-b]pyridin-3-yl)benzyl]amino}pyridine-3-carboxamide]: on PDK1 (setting [2]), the IC50 was 100 to 1000 nM. In addition, the EC50 in test [1] (PC-3, 2 h, inhibition of P308 Akt in PC-3 cells, MSD) was in the range of 1000 to 10000 nM.

On to `Nc1ncnc2ccc(-c3ccc(CNc4ncc(Cl)cc4C(=O)NCc4ccc(F)c(F)c4)s3)cc12` [Example 8.12.3, 2-({[5-(4-aminoquinazolin-6-yl)thiophen-2-yl]methyl}amino)-5-chloro-N-(3,4-difluorobenzyl)pyridine-3-carboxamide], for which the concentration for half-maximal inhibition (IC50) on PDK1 (setting [2]) was 1000 to 5000 nM. In addition, the EC50 in test [1] (setting [3]) lay in the range of 1000 to 10000 nM.

At PDK1 (inhibition of PDK1 in vitro), `C[C@@H](Nc1ncc(C(F)(F)F)cc1C(=O)Nc1ccc(F)cc1)c1ccc(-c2c[nH]c3ncnc(N)c23)cc1` [Example 433, 2-{(R)-1-[4-(4-Amino-7H-pyrrolo[2,3-d]pyrimidin-5-yl)-phenyl]-ethylamino}-N-(4-fluoro-phenyl)-5-trifluoromethyl-nicotinamide] gave an IC50 of under 100 nM. Besides, the EC50 in test [1] (setting [4]) was 1000 to 10000 nM.

For `Nc1ncc(-c2ccc(CNc3ncc(C(F)(F)F)cc3C(=O)Nc3ccc(F)cc3)cc2)nc1-c1cccc(O)c1` [Example 236, 2-{4-[5-Amino-6-(3-hydroxy-phenyl)-pyrazin-2-yl]-benzylamino}-N-(4-fluoro-phenyl)-5-trifluoromethyl-nicotinamide], the IC50 on PDK1 (inhibition of PDK1 in vitro) was under 100 nM. Further, the EC50 in test [1] (setting [4]) was 1000 to 10000 nM.

For the compound `O=C(NCc1ccc(F)c(F)c1)c1cccnc1N[C@@H](COc1ccc2[nH]c(=O)[nH]c2c1)c1ccccc1` [Example 16.1, (R)-N-(3,4-difluorobenzyl)-2-(2-(2-oxo-2,3-dihydro-1H-benzo[d]imidazol-5-yloxy)-1-phenylethylamino)nicotinamide], on PDK1 (setting [2]), the IC50 was under 100 nM. Also, in test [1] (setting [3]), the EC50 was under 1000 nM.
